In patent US9663454B2, “3-aryl propiolonitrile compounds for thiol labeling” (Universite de Strasbourg, priority 2013, dated 2017):

Tests used:
[1] = Hydrolytic stability in PBS, HPLC monitoring; type: physicochemical; details: PBS (1×, pH 7.6), 1 mM, 25° C.
Method: FIG. 3a-3b: HPLC monitoring of the hydrolysis of phenylmaleimide (2) in PBS (1×, pH 7.6) at 1 mM concentration at 25° C.; the peaks correspond, from the earliest to the latest, to
[drawing 5] conversion was monitored by disappearance of the starting material (a). Pseudo first order rate constant for the reaction was determined by plotting the ln([phenylmaleimide]) versus time and analyzing by linear regression. The constant corresponds to the absolute value of determined slope (b).
FIG. 4: HPLC monitoring of hydrolytic stability of N-(4-(cyanoethynyl)phenyl)acetamide (pNHAc-APN, 11) in PBS (1×, pH 7.6) at 1 mM concentration at 25° C. Conversion was monitored by disappearance of the starting material; the peaks correspond, from the earliest to the latest, to
To a vial containing 980 μL of PBS (1×, pH 7.6), were subsequently added 10 μL of a stock solution of benzamide and 10 μL of a stock solution of electrophile (phenylmaleimide 1 or
[drawing 112] 11) to give final concentration of 1 mM (both internal standard and electrophile). Aliquots of the reaction mixture (50 μL) were analyzed by HPLC for 5 hours of hydrolysis (injection every 30 min). Areas under the peaks of the starting materials and hydrolysis products were normalized according to the area of the peak of the internal standard.

[2] = Selectivity screening of electrophiles on amino acid benzylamides, HPLC; details: in 1 hour in PBS (1×, pH 7.6) in presence of the electrophile, 1 mM reagents
Method: (§1) Screening for selectivity was done on benzylamides of non-protected amino acids. 100 mM stock solutions of benzylamides of amino acids (in form of TFA salts) and electrophiles (phenylpropiolonitrile and phenylmaleimide) were prepared in DMSO and stored at −20° C. A 100 mM stock solution of benzamide (used as an internal standard) was prepared in distilled water and stocked at −20° C. Analyses of reaction mixtures were conducted with Shimadzu LC with SunFire™ C18 5 μM 4.6×150 mm column (Waters). HPLC parameters were as follows: flow rate 1 mL/min, gradient from 5 to 95% of mobile phase B from 0 to 20 min, followed by 5 min at 95% of mobile phase and post time of 5 min. Mobile phase A was 0.05% TFA in water (mQ) (v/v), and mobile phase B was acetonitrile (HPLC grade). Data were analyzed using Shimadzu analysis software. Signals were normalized according to the area of the peak of the internal standard (benzamide). Areas under the peaks of the amino acid benzylamides were used to calculate their conversion during reaction.
10 μL of the stock solution of amino acid benzamide and 2.5 μL of the stock solution of benzamide were added to a vial containing 977.5 μL of PBS (1×, pH 7.6). The solution was stirred and 10 μL of the stock solution of electrophile were added to give 1 mM final concentrations of reagents and 0.25 mM concentration of benzamide. Aliquots of the reaction mixture (50 μL) were analyzed by HPLC for 1 hour of hydrolysis (injections at 0, 30 and 60 min). Areas under the peaks of the starting materials and hydrolysis products were normalized according to the area of peak of the internal standard. In case of phenylpropiolonitrile, none of amino acid models gave more than 1.6% conversion (see table 3 below). […] Masses of corresponding adducts were detected by mass spectrometry (ESI-LCMS) in some cases (shown in bold, Table 4).

[3] = Selectivity screening of electrophiles, whole panel of amino acid models; details: 1 hour, PBS (1×, pH 7.6), 1 mM reagents
Method: as §1, with “Areas under the peaks of the amino acid benzylamides were used to calculate their conversion during reaction.” left out
10 μL of the stock solution of amino acid benzamide and 2.5 μL of the stock solution of benzamide were added to a vial containing 977.5 μL of PBS (1×, pH 7.6). […] Aliquots of the reaction mixture (50 μL) were analyzed by HPLC for 1 hour of hydrolysis (injections at 0, 30 and 60 min). […] Masses of corresponding adducts were detected by mass spectrometry (ESI-LCMS) in some cases (shown in bold, Table 4).

[4] = Stability of probes A and B in human plasma (fluorescence over time); type: in vitro ADME; details: same concentration of A and B, FIG. 1
Source text: FIG. 1: Evolution of intensity of fluorescence over time obtained in human plasma for the same concentration of compounds A and B.
The stability of compounds A (according to the invention) and B (reference compound) below was studied in different biological conditions.

BNL CL.2 cells = test: Stability of probes A and B in cellulo (cytometry, microscopy); type: cell-based, mouse; details: 1 μM, 2, 6 and 24 hours, FIG. 2
Method: FIG. 2a-2c: a) Evolution of intensity of fluorescence over time obtained in cellulo for the same concentration of compounds A and B. • b) Intensity ratio compound B/compound A at different times in cellulo. • c) Microscope pictures of cells treated with compounds A and B, superimposition of TAMRA and Hoechst labeling. White spots around nucleus correspond to hydrolyzed probe. A—arylpropiolonitrile probe, B—maleimide probe.
Normal liver BNL CL.2 cells from mouse were grown in Dulbecco's MEM medium with 1 g/l glucose (Eurobio, Les Ulis, France) supplemented with 10% fetal bovine serum (Perbio, Brebieres, France), 2 mM L-Glutamine, 100 U/mL penicillin, 100 μg/mL streptomycin (Eurobio). Cells were maintained in a 5% CO2 humidified atmosphere at 37° C.
The required amounts of probes A and B were diluted up to 300 μl in MEM complete medium to give final concentration of 1 μM and then added onto the cells. A 5 μg/ml of Hoechst 118 solution was used as a nuclear marker.
The day before experiment, BNL CL.2 cells were seeded in 96-plates (Greiner Bio One, Frickenhausen, Germany) at 2.0×10^4 cells/well in Dulbecco's MEM complete medium. […] After washing with PBS (Eurobio), 5 min incubation with 40 μl trypsine, and addition of 160 μl of PBS EDTA 5 mM, cells were analyzed by flow cytometry on a PCA-96 Guava cytometer (Guava Technologies Merck Millipore, Billerica, Mass., USA) with a green laser.

| hydrolysis (in words) ([1]; up to 5 hours of monitoring) | SMILES | kobs (pseudo first order rate constant of hydrolysis) [1] [s⁻¹] | Conversion of AlaNHBn (7c) [2] [%] | Conversion of ArgNHBn (7k) [2] [%] | Conversion of AspNHBn (7l) [2] [%] | Conversion of CysNHBn (7a) [2] [%] | Conversion of GlnNHBn (7i) [2] [%] | Conversion of GlyNHBn (7b) [2] [%] | Conversion of HisNHBn (7h) [2] [%] | Conversion of MetNHBn (7f) [2] [%] | Conversion of SerNHBn (7e) [2] [%] | Conversion of TrpNHBn (7j) [2] [%] | Conversion of TyrNHBn (7g) [2] [%] | Conversion of ValNHBn (7d) [2] [%] | highest conversion among the amino acid models other than cysteine [3] | stability in human plasma (in words) [4] | stability in cellulo (in words) (BNL CL.2 cells) |
| --- | --- | --- | --- | --- | --- | --- | --- | --- | --- | --- | --- | --- | --- | --- | --- | --- | --- |
| Noticeable hydrolysis | O=C1C=CC(=O)N1c1ccccc1 [phenylmaleimide, reference compound] | 7e-05 | 0.2 | 2.9 | 1.3 | 100 | 1.7 | 3.3 | 8.5 | 1.9 | 2.8 | 1.0 | 2.4 | 0.9 | up to 8.5% | – | – |
| – | COc1cc(/N=N/c2ccc([N+](=O)[O-])cc2)c(OC)cc1/N=N/c1ccc(N(C)CCCC(=O)NCCSC(=CC#N)c2ccc(NC(=O)CCCNC(=O)c3ccc(-c4c5ccc(=[N+](C)C)cc-5oc5cc(N(C)C)ccc45)c(C(=O)[O-])c3)cc2)cc1 [A] | – | – | – | – | – | – | – | – | – | – | – | – | – | – | far more stable than compound B in human plasma | far more stable than compound B in cellulo |
